Assay results reported in patent publication US6482851B1, “Synthesis of dysidiolide and uses thereof” (Sloan-Kettering Institute for Cancer Research, priority 1998, dated 2002).
“Also recorded” adds a separate entry of the source.

What was measured:
[1] = system: TSU-Pr1, PC3, DU145 and MCF7 human cancer cell lines; test: viability (Trypan blue exclusion) and FACS sub-G1 of four human cancer cell lines; assay type: cell-based
Experimental: Effect of dysidiolide on the viability of the human cancer cell lines (A) TSU-Pr1, (B) MCF7, (C) PC3, and (D) DU145. Cultures were untreated or treated with 2, 10 or 50 μM dysidiolide for 24 hr. All cultures received a final DMSO concentration of 0.25%. Cells were harvested by trypsinization and viability was determined by Trypan blue exclusion.
FACS analysis of (A) TSU-Pr1, (B) PC3, (C) DU145, and (D) MCF7, untreated or treated with 2, 10 or 50 μM dysidiolide for 24 hr. All cultures received a final DMSO concentration of 0.25%.
(§1) Cells containing fragmented DNA content were detected as the M1 (subG1) region on DNA content plots.
A 20 mM stock solution of dysidiolide was prepared in dimethylsulfoxide (DMSO) and a pilot experiment was carried out to measure the effects of the drug on the viability (Trypan blue exclusion) and flow cytometric parameters of four human cancer cell lines: the prostate lines TSU-Pr1, PC3 and DU145, and the breast line, MCF7. Cultures were treated with 0, 2, 10 and 50 μM dysidiolide for 24 hr. Dysidiolide was cytotoxic to the four lines as evidenced by the loss of Trypan blue exclusion capability and by the appearance of sub-G1 fraction on flow cytometric (FACS) analysis (FIGS. 3 and 4A-D). […] (At 50 μM dysidiolide, the level of cell death was too high in TSU-Pr1 cells to fit a valid histogram (FIG. 5A)). […]

[2] = system: p21, p27, cyclin D1 and cyclin E; test: steady-state levels of other cell cycle regulators in MCF7 cells; assay type: cell-based, human; conditions: 50 μM, 24 hr
Experimental: (§2) (A) Effect of 50 μM dysidiolide on the steady-state levels of Cdc25 A and C, and of other cell cycle regulators in MCF7 cells after a 24 hr treatment.

Cdc25 C = test: steady-state levels of Cdc25 C in MCF7 cell lysates; assay type: cell-based, human
Experimental: Effect of dysidiolide on the activity of Cdk2 and on the steady-state levels of Cdc25A and Cdc25C. MCF7 cells were treated for 2 or 4 hr with 0, 2 or 10 μM dysidiolide. A) The kinase activity of Cdk2 was assayed on immunoprecipitates using histone H1 as exogenous substrate. B) The steady-state levels of Cdc25 A and C were analyzed in total cell lysates with specific antibodies (Santa Cruz Biotechnology's sc097 and sc327 antibodies were used for detection of Cdc25 A and C, respectively).
as §2
To further characterize the effects of dysidiolide on cell cycle control, experiments were conducted at the molecular level. As Cdc25s (A, B and C) are positive regulators of cyclin-dependent kinases (Cdk) (reviewed in Draetta and Eckstein, BBA 1332: M53-M63, 1997) inhibition of Cdc25 is expected to result in inhibition of Cdk activity. MCF7 cells were treated with 2 or 10 μM dysidiolide or with DMSO (controls) for 2 or 4 hr. Cell extracts were used to measure the steady-state levels of Cdc25 A and C, and Cdk activity. […] However, a decrease in the levels of Cdc25 C (but not on A) was clearly noticeable (FIG. 9B). In the next experiment MCF7 cells were treated for 24 hr with 50 μM dysidiolide or with DMSO (control) for 24 hr. […]

Cdk2 = test: in vitro kinase assay of Cdk2 immunoprecipitated from treated TSU-Pr1 cells; assay type: cell-based, human; conditions: 3.33 μM, TSU-Pr1, as early as 3 hours in drug
Experimental: (§3) TSU-Pr1 cells were treated for 24 hours with either DMSO or 3.33 μM dysidiolide. Cells were pulse-labeled for 30 min with bromodeoxyuridine (BrdU) and analyzed by FACS. The R@ window contains BRDU-positive, S-phase cells. Consistent with the proposed inhibitory effect of dysidiolide on the positive cell cycle regulator Cdc25. the drug inhibited the activity of cyclin-dependent kinases (Cdk). Cdk4, 6 and 2 were immunoprecipitated from DMSO- or drug-treated TSU-Pr1 cell cultures. Activity was examined in vitro kinase assays. The activity of the three Cdks was inhibited in drug-treated cells, as early as 3 hours in drug.
(§4) In vitro kinase assays of Cdk. TSU-Pr1 cells were treated with 3.33 μM dysidiolide for 0-24 hours. Samples were collected at various times and the activity of Cdk4, 6 and 2 was determined. Cdks were immunoprecipitated with specific antibodies and incubated with radiolabeled ATP plus either histH1 (for Cdk2) or GST-Rb (for Cdk4 and 6). Reactions were separated on SDS-polyacrylamide gels and the amount of phosphorylated product was determined by radiometric analysis.

[3] = system: lung carcinoma and murine leukemia cell lines; conditions: cited from earlier work
Cdk6 = test: in vitro kinase assay of Cdk6 immunoprecipitated from treated TSU-Pr1 cells; assay type: cell-based, human; conditions: 3.33 μM, TSU-Pr1, as early as 3 hours in drug
Experimental: as §3, §4

[4] = system: TSU-Pr1, PC3 and DU145 human prostrate cancer cells; test: apoptosis by FACS detection of fragmented DNA; assay type: cell-based; conditions: 24 hours
Experimental: as §1
Effects of dysidiolide at the cellular level. Dysidiolide was cytotoxic to several human tumor cell lines. […] (A) Human tumor cells were treated for 24 hours in the presence of various concentrations of dysidiolide or DMSO vehicle. Cells were analyzed by FACS and the percentage of cells bearing less than the 2 n DNA complement was determined. (B) Immunofluorescence micrographs of TSU-Pr1 human prostrate cancer cells untreated or treated for 6 hours with 2-50 μM dysidiolide.

human tumor cell lines = test: anchorage-dependent growth of human tumor cell lines; assay type: cell-based
Experimental: (B) Effect of dysidiolide on anchorage-dependent growth of human tumor cell lines. Cells were grown in multiwell plates and treated with either various drug concentrations or with dimethylsulfoxide (vehicle control). Cell number was determined and the inhibitory concentration to induce 50% growth inhibition (IC50) was determined. (C) Furthermore, dysidiolide inhibited the growth of immortalized human mammary epithelial cells transformed by either the oncogene ras, the receptor tyrosine kinase Neu, or both agents. Again, the IC50 for growth inhibition was in the low μM range (IC50 −3 μM dysidiolide).
In summary, the synthetic dysidiolide is an active drug in human tumor cell lines. It induces cytotoxicity, as detected by loss of Trypan blue exclusion and by the appearance of cells containing fragmented DNA via FACS analysis. […] Dysidiolide has the potential to be a cell cycle-targeted drug, which could be used alone or in combination with other treatments. In this regard, it may sensitize cells for DNA damaging treatments (i.e. act as a radiosensitizer). […] Cell lines derived from tumors of diverse origins were affected similarly.

C=C(C)CCC[C@@]1(C)CCC[C@H]2C1=CC[C@H](C)[C@]2(C)C[C@H](O)C1=CC(=O)O[C@@H]1O (racemic) [dysidiolide]
cytotoxicity (loss of Trypan blue exclusion, sub-G1 fraction) ([1]; 2, 10 and 50 μM, 24 hr): cytotoxic | growth arrest ([1]; 2-50 μM, within 24 hours, four human cancer cell lines): growth arrest | levels of p21, p27, cyclin D1 and cyclin E [2]: reduced levels | levels of Cdc25 C (Cdc25 C; 50 μM, 24 hr): reduced | levels of Cdc25 C (Cdc25 C; 2 or 10 μM, 2 or 4 hr): decrease | Cdk2 activity (Cdk2): inhibited | growth of lung carcinoma and murine leukemia cell lines [3]: inhibits growth | Cdk6 activity (Cdk6): inhibited | apoptosis [4]: massive apoptosis; also recorded: induced apoptotic cell death | cross-resistance with vinblastine or doxorubicin (MDR phenotype) (human tumor cell lines; MCF7 vs. MCF/Adr and CEM vs. CEM/VBL100): no cross-resistance | IC50 (human tumor cell lines; a number of human tumor cancer lines, read-out: IC50 for growth inhibition of human tumor cancer lines): 500 to 4500 nM
